Measurements: patent US6245734A (priority 1997, dated 2001)
In brackets after ≈: the same amount, converted by molar mass. Where two headings read alike, the source gives them in different places.

Tests used:
[1] = tested on: leukemia cells and experimental cancer cells artificially generated by carcinogen virus and the like; conditions: cited from earlier work
[2] = tested on: spontaneously generated human solid cancer cells; conditions: cited from earlier work
[3] = tested on: incubated cancer cells; conditions: cited from earlier work
[4] = tested on: AsPC-1 cells; test: Activity inhibitory to the proliferation of human pancreatic cancer cell AsPC-1 (MTT assay); type: cell-based; conditions: ASPC1, 48 h, read-out: IC50 (concentration at which proliferation of AsPC-1 cells was inhibited by 50%)
Protocol: A cell suspension of AsPC-1 cells suspended in an RPMI 1640 culture medium containing 10% FBS was prepared, and 100 μl-portion each of said cell suspension was placed in a 96-well plastic plate in a proportion of 3×10^3 cells/well. Each plate was then incubated at 37° C. under a 5% CO2 for 1 day. Subsequently, polyoxypeptin or deoxypolyoxypeptin was added to the liquid culture medium present in each well at a concentration of 1, 3, 10, 30 or 100 ng/ml of said compound. Then the incubation of the cells was effected for 2 days. Then, the number of cells was counted by MTT assay method.

[5] = tested on: mice; test: Acute toxicity in mice, single intravenous injection; type: in vivo, mouse; conditions: administered once by intravenous injection
[6] = tested on: other human solid cancer cells; test: Apoptosis induction on other human solid cancer cells; type: cell-based
[7] = tested on: Escherichia coli; test: Antibacterial activity, serial dilution on Muller-Hinton agar; type: cell-based; conditions: gram-negative bacteria such as Escherichia coli
Protocol: Antibacterial spectra of polyoxypeptin and deoxypoly-oxypeptin against various microorganisms were determined on Muller-Hinton agar medium by a serial dilution method on the basis of the standard method of Japan Society of Chemotherapy.

[8] = tested on: Mouse fibroblast cell RSV-NIH3T3 (src-transformed NIH3T3); test: Cytocidal activity, Trypan Blue; type: cell-based; conditions: read-out: IC50 (concentration required to kill 50% of cells)
Protocol: (§1) Various cancer cells as shown in Table 1 below were incubated for 24 hours on such culture medium as shown in the table which contained polyoxypeptin or deoxypolyoxypeptin added at various concentrations. After staining with Trypan Blue, the number.of the dead cells was counted, and the concentration of polyoxypeptin or deoxypolyoxypeptin required to kill 50% of the total number of cells of the cancer cells under test, namely the value of IC50, was calculated therefrom.

[9] = tested on: Human bibrosarcoma HT1080; test: Cytocidal activity, Trypan Blue; type: cell-based; conditions: read-out: IC50 (concentration required to kill 50% of cells)
Protocol: as §1

[10] = tested on: Human pancreatic adenocarcinoma cells Panc-1; test: Cytocidal activity, Trypan Blue; type: cell-based; conditions: read-out: IC50 (concentration required to kill 50% of cells)
Protocol: as §1

[11] = tested on: Human pancreatic adenocarcinoma cells PSN-1; test: Cytocidal activity, Trypan Blue; type: cell-based; conditions: read-out: IC50 (concentration required to kill 50% of cells)
Protocol: as §1

[12] = tested on: Mouse fibroblast cell A4 (cerbB2-NIH3T3); test: Cytocidal activity, Trypan Blue; type: cell-based; conditions: read-out: IC50 (concentration required to kill 50% of cells)
Protocol: as §1

[13] = tested on: Rat fibroblast cell K-ras-NRK; test: Cytocidal activity, Trypan Blue; type: cell-based; conditions: read-out: IC50 (concentration required to kill 50% of cells)
Protocol: as §1

[14] = tested on: Mouse fibroblast cell K-ras-NIH3T3; test: Cytocidal activity, Trypan Blue; type: cell-based; conditions: read-out: IC50 (concentration required to kill 50% of cells)
Protocol: as §1

[15] = tested on: Human uterus body cancer HHUA; test: Cytocidal activity, Trypan Blue; type: cell-based; conditions: read-out: IC50 (concentration required to kill 50% of cells)
Protocol: as §1

[16] = tested on: Human pancreatic adenocarcinoma cells BxPC-3; test: Cytocidal activity, Trypan Blue; type: cell-based; conditions: read-out: IC50 (concentration required to kill 50% of cells)
Protocol: as §1

[17] = tested on: Human chronic promyeloleukemia K562; test: Cytocidal activity, Trypan Blue; type: cell-based; conditions: read-out: IC50 (concentration required to kill 50% of cells)
Protocol: as §1

[18] = tested on: Human T cell leukemia Jurkat; test: Cytocidal activity, Trypan Blue; type: cell-based; conditions: read-out: IC50 (concentration required to kill 50% of cells)
Protocol: as §1

[19] = tested on: Human pancreatic adenocarcinoma cells AsPC-1; test: Cytocidal activity, Trypan Blue; type: cell-based; conditions: read-out: IC50 (concentration required to kill 50% of cells)
Protocol: as §1

[20] = tested on: Human epithelioma A431; test: Cytocidal activity, Trypan Blue; type: cell-based; conditions: read-out: IC50 (concentration required to kill 50% of cells)
Protocol: as §1

[21] = tested on: Human promyeloleukemia HL-60; test: Cytocidal activity, Trypan Blue; type: cell-based; conditions: read-out: IC50 (concentration required to kill 50% of cells)
Protocol: as §1

[22] = tested on: Rat fibroblast cell NRK; test: Cytocidal activity, Trypan Blue; type: cell-based; conditions: read-out: IC50 (concentration required to kill 50% of cells)
Protocol: as §1

[23] = tested on: Mouse fibroblast cell NIH3T3; test: Cytocidal activity, Trypan Blue; type: cell-based; conditions: read-out: IC50 (concentration required to kill 50% of cells)
Protocol: as §1

[24] = tested on: AsPC-1 cells; test: Apoptosis-inducing activity on human pancreatic cancer cell AsPC-1 (Trypan Blue); type: cell-based; conditions: for IC50: Homo sapiens, read-out: IC50 (concentration at which cell death by apoptosis is induced at 50% of total AsPC-1 cells); for time after drug treatment in which apoptosis was induced on AsPC-1 cells: after the drug treatment
Protocol: A cell suspension containing the AsPC-1 cells suspended in an RPMI 1640 culture medium containing 10% FBS was prepared, and 500 μl-portion each of the cell suspension was placed in a 24-well plastic plate in a proportion of 1×10^5 cells/well. The cell suspension was incubated at 37° C. under 5% CO2 for 1 day. The AsPC-1 cells adhered onto the bottom surface of each well. Subsequently, polyoxypeptin or deoxypolyoxypeptin was added to the liquid culture medium present in each well so as to give the substance under test at a concentration of 3, 100 or 300 μg/ml. The cells were incubated for 24 hours.
Immediately after the incubation for 24 hours, the supernatant liquid (500 μl) of the culture medium remaining in each well was removed from each well of said plastic plate and discarded. Then, the plastic plate was washed twice with a PBS buffer solution (each 300 μl), and the washings were discharged. Thereafter, a trypsin-EDTA buffer solution (200 μl) was added to said plastic plate, and the incubation was effected at 37° C. under CO2 -free condition so as to peel the cells off from the plate. The cells so peeled were transferred to an Eppendorf tube. The Eppendorf tube was centrifuged (2400 rpm, 10 minutes) to deposit the cells down, and the super-natant was removed and discarded. A fresh amount of the liquid culture medium was added to the cells. An 80 μl-portion of the resulting cell suspension as formed in said tube was taken into another Eppendorf tube, to which were then added 20 μl of Trypan Blue staining solution (containing 4 mg/ml of Trypan Blue and 9 mg/ml of NaCl). The cell suspension was taken out from the resulting mixture by a pipette, and the cell suspension so pipetted was placed on a hemocytometer (made by Elma Co.). The cell sample was observed under a microscope of 100 magnifications. The number of the dead cells as blue-colored amongst the cells under observation, and the total number of whole cells under observation were counted.
The survival rate (%) of the cells was calculated by an equation of 100-[(number of dead cells.div. total number of tested cells)×100].

[25] = Solubility; conditions: for Solubility in organic solvents: methanol, ethanol, aqueous ethanol, chloroform, ethyl acetate, acetone, (n-)butanol, acetonitrile, toluene, dimethylsulfoxide
[26] = tested on: BxPC-3 cell; conditions: 3 μg/ml adriamycin, from start of treatment; cited from earlier work
[27] = tested on: AsPC-1 cell; conditions: 30 μg/ml adriamycin; cited from earlier work

N.N.[Cl][Pt][Cl] [cisplatin]
apoptosis induction on leukemia cells and experimental cancer cells [1]: can have an activity of inducing the apoptosis | apoptosis induction on many spontaneously generated human solid cancer cells [2]: does not induce apoptosis | apoptosis induction on some of incubated cancer cells [3]: have the activities of inducing the apoptosis

CCC(C)CC1CCC(O)(C(C)(O)C(=O)NC2C(=O)N3NCCCC3C(=O)N(O)C(C)C(=O)N3NCC(O)CC3C(=O)N3CCC(C)(O)C3C(=O)N(O)C(C(C)C)C(=O)OC2C(C)C)OC1CC (centres unmarked) [polyoxypeptin]
IC50 [4]: 0.015 µg/mL (≈ 0.0155 µM) | LD50 [5]: 67.5 μg/mouse | apoptosis-inducing activity on other human solid cancer cells [6]: have also an activity of inducing apoptosis | antibacterial activity against gram-negative bacteria [7]: did not exhibit any antibacterial activity | IC50 ([8]; NIH3T3, 24 h): 0.06 µg/mL (≈ 0.0619 µM) | IC50 ([9]; HT-1080, 24 h): 0.02 µg/mL (≈ 0.0206 µM) | IC50 ([10]; PANC-1, 24 h): 0.05 µg/mL (≈ 0.0516 µM) | IC50 ([11]; PSN1, 24 h): 0.01 µg/mL (≈ 0.0103 µM) | IC50 ([12]; 24 h): 0.06 µg/mL (≈ 0.0619 µM) | IC50 ([13]; 24 h): 0.05 µg/mL (≈ 0.0516 µM) | IC50 ([14]; 24 h): 0.1 µg/mL (≈ 0.103 µM) | IC50 ([15]; 24 h): 0.05 µg/mL (≈ 0.0516 µM) | IC50 ([16]; BXPC-3, 24 h): 0.03 µg/mL (≈ 0.031 µM) | IC50 ([17]; K562, 24 h): 0.02 µg/mL (≈ 0.0206 µM) | IC50 ([18]; 24 h): 0.05 µg/mL (≈ 0.0516 µM) | IC50 ([19]; ASPC1, 24 h): 0.08 µg/mL (≈ 0.0825 µM) | IC50 ([20]; A-431, 24 h): 0.03 µg/mL (≈ 0.031 µM) | IC50 ([21]; HL-60, 24 h): 0.04 µg/mL (≈ 0.0413 µM) | IC50 ([22]; 24 h): 0.18 µg/mL (≈ 0.186 µM) | IC50 ([23]; NIH3T3, 24 h): 0.05 µg/mL (≈ 0.0516 µM) | IC50 ([24]; ASPC1, 24 h): 0.08 µg/mL (≈ 0.0825 µM) | time after drug treatment in which apoptosis was induced on AsPC-1 cells [24]: approximately 24 hours | Solubility in organic solvents [25]: Soluble | Solubility in water [25]: hardly soluble

CCC(C)CC1CCC(O)(C(C)(O)C(=O)NC2C(=O)N3NCCCC3C(=O)N(O)C(C)C(=O)N3NCCCC3C(=O)N3CCC(C)(O)C3C(=O)N(O)C(C(C)C)C(=O)OC2C(C)C)OC1CC (centres unmarked) [deoxypolyoxypeptin]
IC50 ([4]; 2 days incubation, MTT, RPMI 1640 with 10% FBS): 0.015 µg/mL (≈ 0.0157 µM) | LD50 [5]: 125 μg/mouse | apoptosis-inducing activity on other human solid cancer cells [6]: have also an activity of inducing apoptosis | antibacterial activity against gram-negative bacteria [7]: did not exhibit any antibacterial activity | IC50 ([8]; RSV-NIH3T3 (src-transformed NIH3T3), 24 hours, medium A): 0.06 µg/mL (≈ 0.0629 µM) | IC50 ([9]; HT-1080, HT1080, 24 hours, medium D): 0.02 µg/mL (≈ 0.021 µM) | IC50 ([10]; Panc-1, 24 hours, medium A): 0.05 µg/mL (≈ 0.0525 µM) | IC50 ([11]; PSN1, PSN-1, 24 hours, medium A): 0.01 µg/mL (≈ 0.0105 µM) | IC50 ([12]; A4 (cerbB2-NIH3T3), 24 hours, medium A): 0.06 µg/mL (≈ 0.0629 µM) | IC50 ([13]; K-ras-NRK, 24 hours, medium C): 0.05 µg/mL (≈ 0.0525 µM) | IC50 ([14]; K-ras-NIH3T3, 24 hours, medium A): 0.1 µg/mL (≈ 0.105 µM) | IC50 ([15]; HHUA, 24 hours, medium D): 0.05 µg/mL (≈ 0.0525 µM) | IC50 ([16]; BxPC-3, 24 hours, medium A): 0.03 µg/mL (≈ 0.0315 µM) | IC50 ([17]; K562, 24 hours, medium A): 0.02 µg/mL (≈ 0.021 µM) | IC50 ([18]; 24 hours, medium B): 0.05 µg/mL (≈ 0.0525 µM) | IC50 ([19]; ASPC1, AsPC-1, 24 hours, medium A): 0.08 µg/mL (≈ 0.0839 µM) | IC50 ([20]; A-431, A431, 24 hours, medium C): 0.03 µg/mL (≈ 0.0315 µM) | IC50 ([21]; HL-60, 24 hours, medium A): 0.04 µg/mL (≈ 0.042 µM) | IC50 ([22]; NRK, 24 hours, medium C): 0.18 µg/mL (≈ 0.189 µM) | IC50 ([23]; NIH3T3, 24 hours, medium A): 0.05 µg/mL (≈ 0.0525 µM) | IC50 ([24]; ASPC1, 24 hours incubation, RPMI 1640 with 10% FBS): 0.08 µg/mL (≈ 0.0839 µM) | time after drug treatment in which apoptosis was induced on AsPC-1 cells [24]: approximately 24 hours | Solubility in organic solvents [25]: Soluble | Solubility in water [25]: hardly soluble

COc1cccc2c1C(=O)c1c(O)c3c(c(O)c1C2=O)C[C@@](O)(C(=O)CO)C[C@@H]3O[C@H]1C[C@H](N)[C@H](O)[C@H](C)O1 [adriamycin]
apoptosis induction on leukemia cells and experimental cancer cells [1]: can have an activity of inducing the apoptosis | time within which apoptosis is induced on BxPC-3 cell [26]: ≤ 24 h | apoptosis induction on many spontaneously generated human solid cancer cells [2]: does not induce apoptosis | apoptosis induction on AsPC-1 cell [27]: does not induce apoptosis | apoptosis induction on some of incubated cancer cells [3]: have the activities of inducing the apoptosis
